Results on one compound are retold here after paper PMC4620497 (Scientific Reports, 2015).

SMILES strings stand for the structures.

Test [1] addresses T1, HIPK3 (Homo sapiens, UniProt Q9H422).
T1 construct: purchased DiscoveRx KINOMEscan (Ambit Biosciences)
Nature of the test: KINOMEscan panel screen. Format: binding. The following applies: read-out: Percent Control(%).

Test [2] has as its target T2, CAMK4 (Homo sapiens, UniProt Q16566).
T2 construct: purchased DiscoveRx KINOMEscan (Ambit Biosciences)
T2 sequence (Q16566 1-473): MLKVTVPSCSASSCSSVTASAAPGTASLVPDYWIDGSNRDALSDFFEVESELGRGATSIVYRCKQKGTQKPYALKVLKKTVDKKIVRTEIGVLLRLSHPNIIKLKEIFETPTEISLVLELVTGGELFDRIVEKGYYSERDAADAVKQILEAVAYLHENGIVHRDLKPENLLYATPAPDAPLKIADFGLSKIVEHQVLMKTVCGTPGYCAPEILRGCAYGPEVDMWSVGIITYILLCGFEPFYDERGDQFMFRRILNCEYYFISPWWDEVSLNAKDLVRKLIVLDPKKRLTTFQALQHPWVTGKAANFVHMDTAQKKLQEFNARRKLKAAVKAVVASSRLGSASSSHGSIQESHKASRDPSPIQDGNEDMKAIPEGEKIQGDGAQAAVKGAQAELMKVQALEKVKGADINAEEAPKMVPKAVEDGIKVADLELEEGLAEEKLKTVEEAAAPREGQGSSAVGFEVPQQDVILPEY
Nature of the test: KINOMEscan panel screen. Format: binding. Conditions: read-out: Percent Control(%).

Test [3] deals with T3, MYLK2 (Homo sapiens, UniProt Q9H1R3).
T3 construct: purchased DiscoveRx KINOMEscan (Ambit Biosciences)
Nature of the test: KINOMEscan panel screen. Conditions: read-out: Percent Control(%). Format: binding.

In test [4] the target is T4, CSNK2A1 (Homo sapiens, UniProt P68400).
T4 construct: purchased DiscoveRx KINOMEscan (Ambit Biosciences)
Nature of the test: KINOMEscan panel screen. Conditions: read-out: Percent Control(%). Format: binding.

The target of test [5] is T5, ADCK3 (Homo sapiens, UniProt Q8NI60).
T5 construct: purchased DiscoveRx KINOMEscan (Ambit Biosciences)
Nature of the test: KINOMEscan panel screen. Format: binding. Conditions: read-out: Percent Control(%).

Test [6] addresses T6, CDKL5 (Homo sapiens, UniProt O76039).
T6 construct: purchased DiscoveRx KINOMEscan (Ambit Biosciences)
Nature of the test: KINOMEscan panel screen. Format: binding. The following applies: read-out: Percent Control(%).

In test [7] the target is T7, JNK3 (Homo sapiens, UniProt P53779).
T7 construct: purchased DiscoveRx KINOMEscan (Ambit Biosciences)
Nature of the test: KINOMEscan panel screen. It counts as binding. Conditions: read-out: Percent Control(%).

In test [8] the target is T8, FYN (Homo sapiens, UniProt P06241).
T8 construct: purchased DiscoveRx KINOMEscan (Ambit Biosciences)
Nature of the test: KINOMEscan panel screen. Format: binding. Conditions: read-out: Percent Control(%).

For test [9], the system named is FLT3(ITD). Nature of the test: KINOMEscan panel screen. Conditions: 10 μM. It counts as binding, human.
The target in test [10] is T9, CDC2L2 (Homo sapiens, UniProt Q9UQ88).
T9 construct: purchased DiscoveRx KINOMEscan (Ambit Biosciences)
Nature of the test: KINOMEscan panel screen. Format: binding. Conditions: read-out: Percent Control(%).

Test [11] addresses T10, SRMS (Homo sapiens, UniProt Q9H3Y6).
T10 construct: purchased DiscoveRx KINOMEscan (Ambit Biosciences)
Nature of the test: KINOMEscan panel screen. It counts as binding. The following applies: read-out: Percent Control(%).

The target in test [12] is T11, IRAK1 (Homo sapiens, UniProt P51617).
T11 construct: purchased DiscoveRx KINOMEscan (Ambit Biosciences)
Nature of the test: KINOMEscan panel screen. It counts as binding. The following applies: read-out: Percent Control(%).

The target of test [13] is T12, EGFR(L747-E749del, A750P) (Homo sapiens, UniProt P00533, A750P/DEL747-749).
T12 construct: purchased DiscoveRx KINOMEscan (Ambit Biosciences)
Nature of the test: KINOMEscan panel screen. It counts as binding. Conditions: read-out: Percent Control(%).

Test [14] has as its target T13, EGFR(E746-A750del) (Homo sapiens, UniProt P00533, DEL746-750).
T13 construct: purchased DiscoveRx KINOMEscan (Ambit Biosciences)
Nature of the test: KINOMEscan panel screen. The following applies: read-out: Percent Control(%). It counts as binding.

The target in test [15] is T14, FLT3-wt (Homo sapiens, UniProt P36888).
T14 construct: DNA tag (qPCR read-out); purchased Ambit Biosciences (KINOMEscan service)
Nature of the test: KINOMEscan kinase binding assay (Kd).

Test [16] deals with BTK (Homo sapiens, UniProt Q06187). Nature of the test: KINOMEscan kinase binding assay (Kd).
For test [17], the target named is T15, MET(M1250T) (Homo sapiens, UniProt P08581, M1250T).
T15 construct: purchased DiscoveRx KINOMEscan (Ambit Biosciences)
Nature of the test: KINOMEscan panel screen. Format: binding. The following applies: read-out: Percent Control(%).

The target in test [18] is T16, BRAF(V600E) (Homo sapiens, UniProt P15056, V600E).
T16 construct: purchased DiscoveRx KINOMEscan (Ambit Biosciences)
Nature of the test: KINOMEscan panel screen. It counts as binding. The following applies: read-out: Percent Control(%).

For test [19], the target named is T17, EGFR(G719S) (Homo sapiens, UniProt P00533, G719S).
T17 construct: purchased DiscoveRx KINOMEscan (Ambit Biosciences)
Nature of the test: KINOMEscan panel screen. It counts as binding. The following applies: read-out: Percent Control(%).

For test [20], the target named is T18, RIOK2 (Homo sapiens, UniProt Q9BVS4).
T18 construct: purchased DiscoveRx KINOMEscan (Ambit Biosciences)
Nature of the test: KINOMEscan panel screen. It counts as binding. Conditions: read-out: Percent Control(%).

Test [21] deals with T19, CDK4-cyclinD1 (Homo sapiens, UniProt P11802).
T19 construct: purchased DiscoveRx KINOMEscan (Ambit Biosciences)
Nature of the test: KINOMEscan panel screen. Conditions: read-out: Percent Control(%). Format: binding.

Test [22] deals with T20, SRPK3 (Homo sapiens, UniProt Q9UPE1).
T20 construct: purchased DiscoveRx KINOMEscan (Ambit Biosciences)
Nature of the test: KINOMEscan panel screen. Conditions: read-out: Percent Control(%). Format: binding.

T1 sequence (Q9H422 whole entry): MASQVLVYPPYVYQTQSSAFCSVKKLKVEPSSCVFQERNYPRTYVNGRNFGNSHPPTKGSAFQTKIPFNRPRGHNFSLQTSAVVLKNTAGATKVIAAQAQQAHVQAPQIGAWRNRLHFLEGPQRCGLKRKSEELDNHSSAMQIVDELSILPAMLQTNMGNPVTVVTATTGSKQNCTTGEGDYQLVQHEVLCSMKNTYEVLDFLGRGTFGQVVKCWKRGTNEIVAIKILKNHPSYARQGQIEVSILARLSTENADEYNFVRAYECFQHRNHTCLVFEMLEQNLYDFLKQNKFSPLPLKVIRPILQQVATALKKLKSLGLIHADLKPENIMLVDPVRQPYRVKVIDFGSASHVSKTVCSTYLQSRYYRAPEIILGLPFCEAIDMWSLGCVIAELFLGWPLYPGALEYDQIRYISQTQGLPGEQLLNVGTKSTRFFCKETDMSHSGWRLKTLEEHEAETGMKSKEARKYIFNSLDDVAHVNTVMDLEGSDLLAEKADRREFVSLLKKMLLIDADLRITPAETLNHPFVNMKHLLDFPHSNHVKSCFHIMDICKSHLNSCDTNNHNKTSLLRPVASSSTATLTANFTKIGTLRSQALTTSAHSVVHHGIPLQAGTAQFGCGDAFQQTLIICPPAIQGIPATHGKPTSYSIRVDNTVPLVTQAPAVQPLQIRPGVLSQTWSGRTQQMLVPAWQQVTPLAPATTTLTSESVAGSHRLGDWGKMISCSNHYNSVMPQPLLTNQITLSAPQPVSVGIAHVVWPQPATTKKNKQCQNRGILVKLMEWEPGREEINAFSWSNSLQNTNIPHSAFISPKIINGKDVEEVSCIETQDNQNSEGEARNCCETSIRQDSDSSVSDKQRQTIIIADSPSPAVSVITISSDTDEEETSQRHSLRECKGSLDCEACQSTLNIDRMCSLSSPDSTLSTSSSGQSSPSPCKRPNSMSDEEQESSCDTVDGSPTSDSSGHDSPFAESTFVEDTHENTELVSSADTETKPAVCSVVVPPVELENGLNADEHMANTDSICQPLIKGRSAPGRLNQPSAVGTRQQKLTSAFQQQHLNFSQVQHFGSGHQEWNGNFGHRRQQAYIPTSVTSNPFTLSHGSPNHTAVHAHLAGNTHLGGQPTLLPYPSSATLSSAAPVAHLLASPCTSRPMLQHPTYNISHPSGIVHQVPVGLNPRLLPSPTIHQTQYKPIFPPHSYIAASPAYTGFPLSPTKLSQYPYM
T3 sequence (Q9H1R3 whole entry): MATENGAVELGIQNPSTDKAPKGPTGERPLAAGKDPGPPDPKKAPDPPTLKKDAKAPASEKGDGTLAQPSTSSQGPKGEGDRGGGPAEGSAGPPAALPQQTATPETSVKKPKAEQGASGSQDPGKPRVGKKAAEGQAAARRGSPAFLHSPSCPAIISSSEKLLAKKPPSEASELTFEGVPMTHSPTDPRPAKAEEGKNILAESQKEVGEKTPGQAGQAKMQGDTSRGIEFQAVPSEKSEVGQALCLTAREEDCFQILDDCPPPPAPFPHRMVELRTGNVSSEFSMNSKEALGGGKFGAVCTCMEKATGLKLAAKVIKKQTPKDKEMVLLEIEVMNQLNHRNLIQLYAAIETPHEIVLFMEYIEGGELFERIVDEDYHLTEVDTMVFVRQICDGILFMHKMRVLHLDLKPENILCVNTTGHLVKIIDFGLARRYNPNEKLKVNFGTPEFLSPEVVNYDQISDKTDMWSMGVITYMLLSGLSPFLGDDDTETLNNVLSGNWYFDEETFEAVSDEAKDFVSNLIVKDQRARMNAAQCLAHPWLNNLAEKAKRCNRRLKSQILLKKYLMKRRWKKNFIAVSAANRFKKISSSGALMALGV
T10 sequence (Q9H3Y6 whole entry): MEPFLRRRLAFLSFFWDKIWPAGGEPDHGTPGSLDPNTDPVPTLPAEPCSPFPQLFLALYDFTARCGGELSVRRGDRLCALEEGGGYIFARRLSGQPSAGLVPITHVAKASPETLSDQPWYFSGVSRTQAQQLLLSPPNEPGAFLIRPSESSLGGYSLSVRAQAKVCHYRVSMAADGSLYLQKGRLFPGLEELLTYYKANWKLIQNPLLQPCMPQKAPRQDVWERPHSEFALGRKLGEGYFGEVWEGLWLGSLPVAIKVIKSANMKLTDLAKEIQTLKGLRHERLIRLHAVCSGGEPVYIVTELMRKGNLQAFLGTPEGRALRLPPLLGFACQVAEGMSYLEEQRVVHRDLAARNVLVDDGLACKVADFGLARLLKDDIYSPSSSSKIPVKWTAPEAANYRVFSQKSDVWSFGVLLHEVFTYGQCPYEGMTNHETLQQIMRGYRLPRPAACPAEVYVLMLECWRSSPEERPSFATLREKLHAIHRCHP
T6 sequence (O76039 whole entry): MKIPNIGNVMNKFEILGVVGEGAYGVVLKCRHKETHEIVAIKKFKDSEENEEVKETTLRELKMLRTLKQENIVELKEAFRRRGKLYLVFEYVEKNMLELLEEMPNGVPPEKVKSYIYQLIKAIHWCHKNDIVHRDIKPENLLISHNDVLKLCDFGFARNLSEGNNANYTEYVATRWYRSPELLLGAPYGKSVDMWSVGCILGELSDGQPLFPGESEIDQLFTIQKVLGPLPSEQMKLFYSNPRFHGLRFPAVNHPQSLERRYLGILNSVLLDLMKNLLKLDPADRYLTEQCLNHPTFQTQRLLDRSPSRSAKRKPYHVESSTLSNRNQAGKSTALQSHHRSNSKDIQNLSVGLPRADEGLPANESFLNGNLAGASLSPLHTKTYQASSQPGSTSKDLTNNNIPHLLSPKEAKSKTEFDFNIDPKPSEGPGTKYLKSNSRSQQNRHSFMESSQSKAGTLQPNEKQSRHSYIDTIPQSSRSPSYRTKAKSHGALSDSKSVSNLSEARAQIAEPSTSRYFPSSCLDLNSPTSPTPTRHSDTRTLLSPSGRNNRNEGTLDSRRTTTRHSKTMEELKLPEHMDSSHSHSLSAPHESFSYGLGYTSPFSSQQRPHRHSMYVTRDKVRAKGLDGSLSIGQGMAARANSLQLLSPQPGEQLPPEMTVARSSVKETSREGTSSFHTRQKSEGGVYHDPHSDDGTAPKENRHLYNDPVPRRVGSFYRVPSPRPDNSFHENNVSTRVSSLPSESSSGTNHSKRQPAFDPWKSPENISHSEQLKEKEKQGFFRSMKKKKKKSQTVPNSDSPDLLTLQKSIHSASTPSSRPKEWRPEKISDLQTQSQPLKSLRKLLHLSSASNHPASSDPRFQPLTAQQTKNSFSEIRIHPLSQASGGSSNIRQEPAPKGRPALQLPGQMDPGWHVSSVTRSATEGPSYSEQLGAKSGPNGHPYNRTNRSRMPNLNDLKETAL
T7 sequence (P53779 whole entry): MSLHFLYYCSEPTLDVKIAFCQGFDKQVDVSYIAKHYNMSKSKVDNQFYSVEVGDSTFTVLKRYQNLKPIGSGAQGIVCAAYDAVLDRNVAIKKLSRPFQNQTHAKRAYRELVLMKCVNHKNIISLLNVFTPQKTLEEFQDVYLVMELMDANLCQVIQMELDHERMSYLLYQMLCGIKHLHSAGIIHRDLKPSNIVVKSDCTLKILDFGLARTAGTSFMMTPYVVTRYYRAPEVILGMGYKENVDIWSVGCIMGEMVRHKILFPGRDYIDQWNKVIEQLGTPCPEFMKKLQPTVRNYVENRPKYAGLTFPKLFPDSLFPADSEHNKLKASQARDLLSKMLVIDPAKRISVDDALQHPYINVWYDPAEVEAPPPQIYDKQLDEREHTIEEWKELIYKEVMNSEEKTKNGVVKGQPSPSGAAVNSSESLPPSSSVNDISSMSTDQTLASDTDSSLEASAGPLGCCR
T15 sequence (P08581 25-1390 M1250T): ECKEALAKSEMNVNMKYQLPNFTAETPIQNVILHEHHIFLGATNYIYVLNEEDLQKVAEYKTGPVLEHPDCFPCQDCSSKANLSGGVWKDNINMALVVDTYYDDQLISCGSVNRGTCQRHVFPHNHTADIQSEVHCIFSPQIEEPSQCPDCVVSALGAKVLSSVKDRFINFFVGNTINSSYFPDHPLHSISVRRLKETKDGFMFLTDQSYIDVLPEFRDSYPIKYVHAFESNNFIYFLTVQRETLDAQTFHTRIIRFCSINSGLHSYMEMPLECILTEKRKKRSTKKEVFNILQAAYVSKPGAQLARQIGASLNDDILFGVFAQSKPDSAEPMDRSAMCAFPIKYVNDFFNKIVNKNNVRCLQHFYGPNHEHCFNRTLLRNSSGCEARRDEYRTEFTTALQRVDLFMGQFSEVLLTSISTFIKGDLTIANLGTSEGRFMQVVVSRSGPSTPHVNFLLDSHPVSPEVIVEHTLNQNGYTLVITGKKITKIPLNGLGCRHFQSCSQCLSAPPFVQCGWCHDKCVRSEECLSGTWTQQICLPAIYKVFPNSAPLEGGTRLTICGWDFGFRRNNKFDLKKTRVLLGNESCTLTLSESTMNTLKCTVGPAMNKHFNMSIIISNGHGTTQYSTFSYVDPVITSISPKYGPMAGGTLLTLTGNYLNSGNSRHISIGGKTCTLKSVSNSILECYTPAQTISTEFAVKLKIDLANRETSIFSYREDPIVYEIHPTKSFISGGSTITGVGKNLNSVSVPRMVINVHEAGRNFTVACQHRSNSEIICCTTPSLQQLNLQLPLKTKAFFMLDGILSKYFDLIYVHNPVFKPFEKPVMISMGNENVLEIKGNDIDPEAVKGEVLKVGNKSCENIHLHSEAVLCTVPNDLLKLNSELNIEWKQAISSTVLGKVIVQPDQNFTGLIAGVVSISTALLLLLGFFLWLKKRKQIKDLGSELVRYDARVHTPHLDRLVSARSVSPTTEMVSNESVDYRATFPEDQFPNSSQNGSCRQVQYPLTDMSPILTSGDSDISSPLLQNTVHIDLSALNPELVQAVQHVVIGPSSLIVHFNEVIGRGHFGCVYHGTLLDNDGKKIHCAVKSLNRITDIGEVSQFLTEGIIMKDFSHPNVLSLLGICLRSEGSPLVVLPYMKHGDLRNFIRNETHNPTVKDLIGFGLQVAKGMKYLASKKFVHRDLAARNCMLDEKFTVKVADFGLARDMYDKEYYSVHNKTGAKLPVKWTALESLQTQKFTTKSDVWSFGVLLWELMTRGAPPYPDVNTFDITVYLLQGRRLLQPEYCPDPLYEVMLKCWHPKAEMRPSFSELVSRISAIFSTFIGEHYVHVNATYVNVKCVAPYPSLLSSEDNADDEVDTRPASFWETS

Consider `CC(C)(C)c1cc(NC(=O)Nc2ccc(Oc3ncnc4[nH]ncc34)c(F)c2)no1` [SKLB-677, 1-(4-(1H-pyrazolo[3,4-d]pyrimidin-4-yloxy)-3-fluorophenyl)-3-(5-tert-butylisoxazol-3-yl)urea], for which the remaining binding at 10 µM in test [1] was found to be 1.2%; in [2] it was 85%; in test [3], 72%; in test [4], 100%; in [5], 100%; in [6] it was 5%. Further, the remaining binding at 10 µM in test [7] amounted to 18%; in test [8], 15%; in test [10], 53%; in test [11], 57%; in [12], 2%; in test [13], 19%. Further, the remaining binding at 10 µM came out at 37% in [14]; 2.2% in test [17]; 0.05% in test [18]; 47% in test [19]; 88% in test [20]; 29% in test [21]. Further, in [22], the remaining binding at 10 µM was found to be 71%. Besides, in [9], the “Percent Control(%)” value is reported as 0.05%. Further, the values for the Kd in test [15] and in test [16] were 0.74 nM and greater than 10 µM, respectively.
